Activity calls are given as the source filed them. The rule behind the calls is not given here.
Columns and labels:
[1] = biological target: T1, Nuclear factor erythroid 2-related factor 2 (Mus musculus) (UniProt Q60795); assay: Activation of Nrf2 in mouse Heap1c1c7 cells assessed as induction of NAD(P)H:quinone reductase activity at 6.25 uM pretreated for 1 hr followed by co-treatment with MEK1/2 inhibitor Uo126 for 24 hrs; assay type: cell-based
T1 sequence (whole entry): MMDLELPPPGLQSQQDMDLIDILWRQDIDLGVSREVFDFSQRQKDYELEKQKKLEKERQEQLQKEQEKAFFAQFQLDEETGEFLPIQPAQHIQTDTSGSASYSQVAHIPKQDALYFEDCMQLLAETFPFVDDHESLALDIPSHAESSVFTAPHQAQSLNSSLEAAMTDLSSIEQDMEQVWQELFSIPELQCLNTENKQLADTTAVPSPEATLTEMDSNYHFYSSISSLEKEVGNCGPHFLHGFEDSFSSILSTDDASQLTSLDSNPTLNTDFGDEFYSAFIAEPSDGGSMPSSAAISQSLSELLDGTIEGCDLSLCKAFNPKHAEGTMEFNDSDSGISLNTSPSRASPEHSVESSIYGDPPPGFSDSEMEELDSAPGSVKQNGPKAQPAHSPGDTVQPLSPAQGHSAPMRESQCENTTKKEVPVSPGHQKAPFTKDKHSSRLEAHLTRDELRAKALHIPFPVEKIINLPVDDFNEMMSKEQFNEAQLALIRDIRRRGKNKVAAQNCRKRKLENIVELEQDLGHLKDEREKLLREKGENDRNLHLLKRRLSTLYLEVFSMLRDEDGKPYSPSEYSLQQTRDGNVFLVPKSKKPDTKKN

BEAS-2B [2] = assay: Effect on reactive oxygen species production in human BEAS2B cells at 6.25 uM treated for 8 hrs; assay type: ADME, cell-based
[3] = biological target: T2, Nuclear factor erythroid 2-related factor 2 (Homo sapiens) (UniProt Q16236); assay: Activation of Nrf2 in human BEAS2B cells assessed as upregulation of Nrf2 protein expression at 50 to 100 uM after 18 hrs by immunoblot analysis; assay type: cell-based
T2 sequence (whole entry): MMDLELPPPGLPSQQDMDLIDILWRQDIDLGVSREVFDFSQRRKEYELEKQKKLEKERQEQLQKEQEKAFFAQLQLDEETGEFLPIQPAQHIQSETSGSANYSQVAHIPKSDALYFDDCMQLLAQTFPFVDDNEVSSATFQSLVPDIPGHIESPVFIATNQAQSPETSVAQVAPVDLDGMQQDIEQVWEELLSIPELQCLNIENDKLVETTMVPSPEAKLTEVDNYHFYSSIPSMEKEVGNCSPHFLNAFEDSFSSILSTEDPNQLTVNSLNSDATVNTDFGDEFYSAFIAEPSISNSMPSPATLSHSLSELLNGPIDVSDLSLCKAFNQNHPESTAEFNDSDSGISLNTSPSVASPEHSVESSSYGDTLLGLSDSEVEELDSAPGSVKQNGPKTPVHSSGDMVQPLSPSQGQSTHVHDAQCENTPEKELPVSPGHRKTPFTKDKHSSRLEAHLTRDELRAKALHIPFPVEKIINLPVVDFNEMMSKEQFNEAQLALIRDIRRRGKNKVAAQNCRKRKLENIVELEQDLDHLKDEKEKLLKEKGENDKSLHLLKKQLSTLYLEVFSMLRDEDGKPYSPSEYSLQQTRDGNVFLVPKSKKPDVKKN

[4] = biological target: T2, Nuclear factor erythroid 2-related factor 2 (Homo sapiens); assay: Activation of Nrf2 in human BEAS2B cells assessed as upregulation of Nrf2 protein expression at 6.25 uM pretreated for 1 hr followed by co-treatment with MEK1/2 inhibitor PD98059 for 18 hrs by immunoblot analysis; assay type: cell-based
BEAS-2B [5] = assay: Downregulation of Keap1 protein levels in human BEAS2B cells at 50 to 100 uM after 18 hrs by immunoblot analysis; assay type: functional, cell-based
[6] = biological target: T1, Nuclear factor erythroid 2-related factor 2 (Mus musculus); assay: Activation of Nrf2 in mouse Heap1c1c7 cells assessed as induction of NAD(P)H:quinone reductase activity at 6.25 uM pretreated for 1 hr followed by co-treatment with PKC inhibitor Go6983 for 24 hrs; assay type: cell-based
BEAS-2B [7] = assay: Effect on Keap1 protein levels in human BEAS2B cells at 6.25 uM after 4 to 48 hrs by immunoblot analysis; assay type: functional, cell-based
[8] = biological target: T2, Nuclear factor erythroid 2-related factor 2 (Homo sapiens); assay: Activation of Nrf2 in human BEAS2B cells assessed as upregulation of NQO1 protein expression at 6.25 uM pretreated for 1 hr followed by co-treatment with PI3K inhibitor LY294002 for 18 hrs by immunoblot analysis; assay type: cell-based
[9] = biological target: T2, Nuclear factor erythroid 2-related factor 2 (Homo sapiens); assay: Activation of Nrf2 in human BEAS2B cells assessed as upregulation of Nrf2 protein expression at 6.25 uM pretreated for 1 hr followed by co-treatment with PKC inhibitor Ro-31-8220 for 18 hrs by immunoblot analysis; assay type: cell-based
[10] = biological target: T1, Nuclear factor erythroid 2-related factor 2 (Mus musculus); assay: Activation of Nrf2 in mouse Heap1c1c7 cells assessed as induction of NAD(P)H:quinone reductase activity at 6.25 uM pretreated for 1 hr followed by co-treatment with PERK inhibitor GSK2606414 for 24 hrs; assay type: cell-based
BEAS-2B [11] = assay: Cytotoxicity against human BEAS2B cells assessed as decrease in cell viability up to 25 uM after 48 hrs by MTT assay; assay type: cell-based
[12] = biological target: T2, Nuclear factor erythroid 2-related factor 2 (Homo sapiens); assay: Activation of Nrf2 in human BEAS2B cells assessed as upregulation of NQO1 protein expression at 6.25 uM pretreated for 1 hr followed by co-treatment with p38 MAPK inhibitor SB203580 for 18 hrs by immunoblot analysis; assay type: cell-based
[13] = biological target: T2, Nuclear factor erythroid 2-related factor 2 (Homo sapiens); assay: Activation of Nrf2 in human BEAS2B cells assessed as upregulation of Nrf2 protein expression at 3.12 to 25 uM after 12 hrs by immunoblot analysis; assay type: cell-based
[14] = biological target: T1, Nuclear factor erythroid 2-related factor 2 (Mus musculus); assay: Activation of Nrf2 in mouse Heap1c1c7 cells assessed as induction of NAD(P)H:quinone reductase activity at 6.25 uM pretreated for 1 hr followed by co-treatment with MEK1/2 inhibitor PD98059 for 24 hrs; assay type: cell-based
[15] = biological target: T2, Nuclear factor erythroid 2-related factor 2 (Homo sapiens); assay: Stabilization of Nrf2 in human BEAS2B cells assessed as protein half life at 6.25 uM preincubated for 8 hrs followed by CHX addition and measured over 10 to 40 mins by immunoblot analysis (reference value: 14.7 min); assay type: cell-based

Activity [1]: Active
Activity [3]: inactive
Activity [4]: inactive
Activity [6]: inactive
Activity [8]: inactive
Activity [9]: inactive
Activity [10]: inactive
Activity [12]: inactive
Activity [13]: Active
Activity [14]: inactive
T1/2 [15]: 27.6 min
Structure (SMILES): COc1ccc(-c2coc3cc(OC)cc(O)c3c2=O)cc1 [4',7-DIMETHOXY-5-HYDROXYGENISTEIN]
Activity (BEAS-2B [2]): Non-Toxic
Activity (BEAS-2B [5]): Active
Activity (BEAS-2B [7]): inactive
Activity (BEAS-2B [11]): Non-Toxic

From ChEMBL document CHEMBL4229568, “Discovery of natural flavonoids as activators of Nrf2-mediated defense system: Structure-activity relationship and inhibition of intracellular oxidative insults” (Bioorg Med Chem, 2018)
